In patent US20260001914A1, “MACROCYCLIC PEPTIDES TARGETING KRAS” (Merck Sharp & Dohme LLC, priority 2022, published 2026):
pEC50: −log10 of the molar value. *1 amine or outer side, *2 acyl side, *3 side chain or, on linkers, in order; H or OH if unused. Where a SMILES comes first, the peptide text is derived from it. Bridges are numbered along the chain shown (N, C = ends). [ ]: non-standard residue; d: D form. cBu(1-CO,cis-3-CH2NH) = O=C([C@H]1C[C@@H](CN[*:1])C1)[*:2]; NMeNva(5-imidazol-1-yl) = CN[C@@H](CCCn1ccnc1)C(=O)O; X60 = O=C([C@H](Cc1ccc(NC2=NCCN2)cc1)N[*:1])[*:2]; X59 = O=C([C@H](Cc1ccc(CN2CCCC2)cc1)N[*:1])[*:2]; Ala(pyrimidin-5-yl) = N[C@@H](Cc1cncnc1)C(=O)O; X39 = CN([C@@H](Cc1cccnc1F)C(=O)[*:2])[*:1]; X3 = CN([C@@H](Cc1cncnc1)C(=O)[*:2])[*:1]; Leu(4,5-dehydro) = C=C(C)C[C@H](N)C(=O)O; Lys(N3) = [N-]=[N+]=NCCCC[C@H](N)C(=O)O; 1Nal = N[C@@H](Cc1cccc2ccccc12)C(=O)O; X21 = O=C([C@@H]1C[C@H]1CN[*:1])[*:2]; Phe(2-F) = N[C@@H](Cc1ccccc1F)C(=O)O; NMe3Pal = CN[C@@H](Cc1cccnc1)C(=O)O; X1 = O=C(C12CC(CN[*:1])(C1)C2)[*:2]; NMeR = CN[C@@H](CCCNC(=N)N)C(=O)O; Ala(cPr) = N[C@@H](CC1CC1)C(=O)O; NMeF = CN[C@@H](Cc1ccccc1)C(=O)O; PhLac = O=C(O)[C@@H](O)Cc1ccccc1; 3Pal = N[C@@H](Cc1cccnc1)C(=O)O; 4Pal = N[C@@H](Cc1ccncc1)C(=O)O; Ahp(2) = CCCCC[C@H](N)C(=O)O; Cba = N[C@@H](CC1CCC1)C(=O)O; hLeu = CC(C)CC[C@H](N)C(=O)O; αMeC = C[C@](N)(CS)C(=O)O; NMeA = CN[C@@H](C)C(=O)O; Nle = CCCC[C@H](N)C(=O)O

Target: KRAS-G12D protein (Homo sapiens, UniProt P01116, G12D)
Assay: SOS-mediated nucleotide exchange assay (BODIPY-GDP / Tb-streptavidin TR-FRET)
Format: biochemical

Chain of KRAS-G12D protein (P01116 1-188 isoform P01116-2 G12D): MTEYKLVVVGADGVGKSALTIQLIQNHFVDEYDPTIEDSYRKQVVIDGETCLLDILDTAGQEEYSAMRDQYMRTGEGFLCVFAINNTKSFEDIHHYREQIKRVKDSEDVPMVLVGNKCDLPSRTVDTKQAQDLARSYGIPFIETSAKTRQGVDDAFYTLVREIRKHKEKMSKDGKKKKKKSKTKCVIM

Row | SMILES | pEC50
1 | CCCCC[C@@H]1NC(=O)[C@H](Cc2ccc(OC)cc2)NC(=O)[C@H](CC2CCC2)NC(=O)[C@H](Cc2cccnc2)NC(=O)[C@H](CCCNC(=N)N)NC(=O)[C@H](Cc2ccccc2)NC(=O)CSC[C@@](C)(C(N)=O)NC(=O)[C@H](Cc2cncnc2)N(C)C1=O [compound 376, cyclo(F-R-3Pal-cBuA-TyrOMe-Ahp-NMeAlaPyrim-aMeCl-ClAc)] ({CH2CO}-FR[3Pal][Cba]Y(Me)[Ahp(2)][X3][αMeC]-NH2; thioether N-8) | 7.57
2 | CCCC[C@@H]1NC(=O)[C@H](Cc2ccc(NC3=NCCN3)cc2)NC(=O)[C@H](CCCNC(=N)N)NC(=O)[C@H](Cc2ccccc2)NC(=O)[C@H]2C[C@@H](CNC(=O)[C@H](Cc3ccccc3)N(C)C(=O)[C@H](CCCC)NC(=O)[C@H](Cc3ccc(OC)cc3)NC1=O)C2 [compound 207, cyclo(F-R-Phe4Gnc2-Nle-TyrOMe-Nle-NMeF-c3amCblc)] (cyclo(FR[X60][Nle]Y(Me)[Nle][NMeF][cBu(1-CO,cis-3-CH2NH)])) | 7.81
3 | C=C(C)C[C@@H]1NC(=O)[C@H](CC2CC2)NC(=O)[C@H](Cc2cncnc2)NC(=O)[C@H](C)N(C)C(=O)[C@H](Cc2ccccc2)OC(=O)C23CC(CNC(=O)[C@H](Cc4ccccc4)N(C)C(=O)[C@H](CCC(C)C)NC1=O)(C2)C3 [compound 287, cyclo(FLac-NMeA-PyrimAla-cPrA-deHLeu-hL-NMeF-amBCP)] (cyclo([Ala(cPr)][Leu(4,5-dehydro)][hLeu][NMeF][X1][PhLac][NMeA][Ala(pyrimidin-5-yl)])) | 6.14
4 | CCCC[C@@H]1NC(=O)[C@H](Cc2cccnc2)NC(=O)[C@H](CCCn2ccnc2)N(C)C(=O)[C@H](Cc2ccccc2)N(C)C(=O)C23CC(CNC(=O)[C@H](Cc4cccnc4)N(C)C(=O)[C@H](CCCC)NC(=O)[C@H](Cc4ccccc4F)NC1=O)(C2)C3 [compound 264, cyclo(NMeF-NMeNvalmid-3Pal-Nle-Phe2F-Nle-NMe3Pal-amBCP)] (cyclo([3Pal][Nle][Phe(2-F)][Nle][NMe3Pal][X1][NMeF][NMeNva(5-imidazol-1-yl)])) | 5.39
5 | CCCC[C@@H]1NC(=O)[C@H](Cc2ccncc2)NC(=O)[C@H](CCCNC(=N)N)NC(=O)[C@H](Cc2cccc3ccccc23)NC(=O)CSC[C@@](C)(C(N)=O)NC(=O)[C@H](Cc2cccnc2)N(C)C(=O)[C@H](CCCC)NC(=O)[C@H](Cc2ccc(O)cc2)NC1=O [compound 333, cyclo(INal-R-4Pal-Nle-Y-Nle-NMe3Pal-aMeCl-ClAc)] ({CH2CO}-[1Nal]R[4Pal][Nle]Y[Nle][NMe3Pal][αMeC]-NH2; thioether N-8) | 7.70
6 | CC(C)CC[C@@H]1NC(=O)[C@H](Cc2ccccc2F)NC(=O)[C@H](CC2CC2)NC(=O)[C@H](Cc2cncnc2)NC(=O)[C@H](C)N(C)C(=O)[C@H](Cc2ccccc2)OC(=O)C23CC(CNC(=O)[C@H](Cc4cccnc4F)N(C)C1=O)(C2)C3 [compound 336, cyclo(FLac-NMeA-PyrimAla-cPrA-Phe2F-hL-NMe3Pal2F-amBCP)] (cyclo([Ala(cPr)][Phe(2-F)][hLeu][X39][X1][PhLac][NMeA][Ala(pyrimidin-5-yl)])) | 8.30
7 | CCCC[C@@H]1NC(=O)[C@H](Cc2cccnc2)NC(=O)[C@H](CCCNC(=N)N)N(C)C(=O)[C@H](Cc2ccccc2)NC(=O)[C@@H]2C[C@H]2CNC(=O)[C@H](Cc2ccccc2)N(C)C(=O)[C@H](CCCCN=[N+]=[N-])NC(=O)[C@H](Cc2ccc(OC)cc2)NC1=O [compound 94, cyclo(F-NMeR-3Pal-Nle-TyrOMe-LysN3-NMeF-tamcPr)] (cyclo(F[NMeR][3Pal][Nle]Y(Me)[Lys(N3)][NMeF][X21])) | 6.65
8 | CCCC[C@@H]1NC(=O)[C@H](Cc2ccc(CN3CCCC3)cc2)NC(=O)[C@H](CCCn2ccnc2)N(C)C(=O)[C@H](Cc2ccccc2)NC(=O)C23CC(CNC(=O)[C@H](Cc4cccnc4)N(C)C(=O)[C@H](CCCC)NC(=O)[C@H](Cc4ccccc4F)NC1=O)(C2)C3 [compound 263, cyclo(F-NMeNvaImid-Phe4cPyrr-Nle-Phe2F-Nle-NMe3Pal-amBCP)] (cyclo(F[NMeNva(5-imidazol-1-yl)][X59][Nle][Phe(2-F)][Nle][NMe3Pal][X1])) | 7.38
